Results on two compounds are retold here after patent US9518018B2, “3-alkoxy, thioalkyl and amino-4-amino-6-(substituted)picolinates and their use as herbicides” (Dow AgroSciences LLC, priority 2011, dated 2016).

Each structure is given as a SMILES string. Where two headings read alike, the source gives them in different places. A value given as a limit tells only on which side of the number the result lay.

For series [1], the system named is ABUTH: velvetleaf (Abutilon theophrasti). Put plainly: Post-Emergent Test I herbicidal activity. Format: in vivo. The method, boiled down: (§1)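 Greenhouse plants at first-second true leaf stage sprayed post-emergence by track sprayer at 187 L/ha with compound in acetone/DMSO/water/isopropanol carrier with crop oil concentrate and Triton X-155, top rate plus ½× to 1/16× serial rates. Injury scored visually at 14 d, 0-100% versus untreated plants; GR20, GR50, GR80 from probit analysis.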

Series [2] relates to CHEAL: lambsquarters (Chenopodium album). Put plainly: Post-Emergent Test I herbicidal activity. Format: in vivo. The conditions noted are these: for pest or weed control at 140 g/ha: Table 3, 140 g ai/ha. An outline of the steps:
as §1

The test system of series [3] is CYPES: yellow nutsedge (Cyperus esculentus). The experiment in a line: Post-Emergent Test I herbicidal activity. To be noted: post-emergence, 336 h, Table 3, 140 g ai/ha, read-out: Visual Growth Reduction (%)-14 Days after Application CYPES. Format: in vivo. The method, boiled down: as §1
For series [4], the system named is ECHCG: barnyardgrass (Echinochloa crus-galli). The experiment in a line: Post-Emergent Test I herbicidal activity. Format: in vivo. To be noted: post-emergence, 336 h, Table 3, 140 g ai/ha, read-out: Visual Growth Reduction (%)-14 Days after Application ECHCG. The method, boiled down:
(§2)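 Plants grown in greenhouse to first/second true leaf. Compound formulated in acetone:DMSO 97:3 then diluted into crop-oil/surfactant aqueous mix; serial twofold rates. Sprayed at 187 L/ha, 43 cm above canopy; solvent-blank controls. Scored visually at 14 d; probit fit for GR values.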

The subject of series [5] is EPHHL: wild poinsettia (Euphorbia heterophylla). The experiment in a line: Post-Emergent Test I herbicidal activity. The conditions noted are these: post-emergence, 336 h, Table 3, 140 g ai/ha, read-out: Visual Growth Reduction (%)-14 Days after Application EPHHL. Format: in vivo. The method, boiled down: as §1
For series [6], the system named is ORYSA: rice (Oryza sativa). The experiment in a line: Post-Emergent Test I herbicidal activity. The conditions noted are these: post-emergence, 336 h, Table 3, 140 g ai/ha, read-out: Visual Growth Reduction (%)-14 Days after Application ORYSA. Format: in vivo. The method, boiled down: as §2
A further series concerns ZEAMX: corn (Zea mays). The experiment in a line: Post-Emergent Test I herbicidal activity. Format: in vivo. The method, boiled down:
as §1

Where [7] appears, read: Abutilon theophrasti, post-emergence, 336 h, Table 3, 140 g ai/ha, read-out: Visual Growth Reduction (%)-14 Days after Application ABUTH.
The mark [8] stands for this setting: Table 4, growth reduction of 20% of plant growth, 14 days after application, probit analysis.
[9] abbreviates: Table 4, growth reduction of 50% of plant growth, 14 days after application, probit analysis.
[10] abbreviates: Table 4, growth reduction of 80% of plant growth, 14 days after application, probit analysis.
Where [11] appears, read: Chenopodium album, post-emergence, 336 h, read-out: Visual Growth Reduction (%)-14 Days after Application CHEAL.
Where [12] appears, read: Zea mays, post-emergence, 336 h, Table 3, 140 g ai/ha, read-out: Visual Growth Reduction (%)-14 Days after Application ZEAMX.

As for `COc1c(N)cc(-c2ccc(Cl)cc2)nc1C(=O)O` [Compound 46], the melting point (usually the temperature of the solid-liquid transition) was 165 °C. Also, the pest or weed control at 140 g/ha in series [1] (setting [7]) came to 100%. Further, the pest or weed control at 17.5 g/ha in series [1] (Abutilon theophrasti, post-emergence, 336 h, Table 4, 17.5 g ai/ha, read-out: Visual Growth Reduction (%)-14 Days after Application ABUTH) worked out at 80%. Besides, the pest or weed control at 35 g/ha in series [1] (Abutilon theophrasti, post-emergence, 336 h, Table 4, 35 g ai/ha, read-out: Visual Growth Reduction (%)-14 Days after Application ABUTH) came to 85%. Besides, the pest or weed control at 70 g/ha in series [1] (Abutilon theophrasti, post-emergence, 336 h, Table 4, 70 g ai/ha, read-out: Visual Growth Reduction (%)-14 Days after Application ABUTH) amounted to 95%. Moreover, the pest or weed control at 140 g/ha in series [1] (Abutilon theophrasti, post-emergence, 336 h, Table 4, 140 g ai/ha, read-out: Visual Growth Reduction (%)-14 Days after Application ABUTH) stood at 100%. Moreover, the pest or weed control at 280 g/ha in series [1] (Abutilon theophrasti, post-emergence, 336 h, Table 4, 280 g ai/ha, read-out: Visual Growth Reduction (%)-14 Days after Application ABUTH) was 100%. For the same compound, the “GR20 ABUTH” value in series [1] (setting [8]) is on record as below 17.5 g ai/ha. The “GR50 ABUTH” value in series [1] (setting [9]) is below 17.5 g ai/ha. The “GR80 ABUTH” value in series [1] (setting [10]) is 19.7 g ai/ha. In addition, the pest or weed control at 140 g/ha in series [2] (setting [11]) was determined as 100%. The pest or weed control at 17.5 g/ha in series [2] (Chenopodium album, post-emergence, 336 h, Table 4, 17.5 g ai/ha, read-out: Visual Growth Reduction (%)-14 Days after Application CHEAL) came to 90%. Also, the pest or weed control at 35 g/ha in series [2] (Chenopodium album, post-emergence, 336 h, Table 4, 35 g ai/ha, read-out: Visual Growth Reduction (%)-14 Days after Application CHEAL) turned out to be 95%. The pest or weed control at 70 g/ha in series [2] (Chenopodium album, post-emergence, 336 h, Table 4, 70 g ai/ha, read-out: Visual Growth Reduction (%)-14 Days after Application CHEAL) was found to be 100%. The pest or weed control at 280 g/ha in series [2] (Chenopodium album, post-emergence, 336 h, Table 4, 280 g ai/ha, read-out: Visual Growth Reduction (%)-14 Days after Application CHEAL) came out at 100%. The “Visual Growth Reduction (%)-14 Days after Application CHEAL” value in series [2] (Table 4, 140 g ai/ha) is on record as 100%. Besides, the “GR20 CHEAL” value in series [2] (setting [8]) is listed as below 17.5 g ai/ha. Besides, the “GR50 CHEAL” value in series [2] (setting [9]) is below 17.5 g ai/ha. Also, in series [2] (setting [10]), the “GR80 CHEAL” value is listed as below 17.5 g ai/ha. Besides, in series [3], the pest or weed control at 140 g/ha was determined as 0%. Besides, the pest or weed control at 140 g/ha in series [4] was 15%. Also, the pest or weed control at 140 g/ha in series [5] was 100%. Further, the pest or weed control at 140 g/ha in series [6] was 0%. Besides, in the series with ZEAMX: corn (Zea mays) (setting [8]), the “GR20 ZEAMX” value is reported as above 280 g ai/ha. For the same compound, in the series on ZEAMX: corn (Zea mays) (setting [9]), the “GR50 ZEAMX” value is listed as above 280 g ai/ha. Besides, the “GR80 ZEAMX” value in the series with ZEAMX: corn (Zea mays) (setting [10]) is above 280 g ai/ha. The pest or weed control at 140 g/ha in the series with ZEAMX: corn (Zea mays) (setting [12]) is 0%. Also, the pest or weed control at 17.5 g/ha in the series on ZEAMX: corn (Zea mays) (Zea mays, post-emergence, 336 h, Table 4, 17.5 g ai/ha, read-out: Visual Growth Reduction (%)-14 Days after Application ZEAMX) was determined as 0%. Moreover, the pest or weed control at 35 g/ha in the series with ZEAMX: corn (Zea mays) (Zea mays, post-emergence, 336 h, Table 4, 35 g ai/ha, read-out: Visual Growth Reduction (%)-14 Days after Application ZEAMX) stood at 0%. Moreover, the pest or weed control at 70 g/ha with ZEAMX: corn (Zea mays) (Zea mays, post-emergence, 336 h, Table 4, 70 g ai/ha, read-out: Visual Growth Reduction (%)-14 Days after Application ZEAMX) came out at 0%. Also, the pest or weed control at 140 g/ha in the series with ZEAMX: corn (Zea mays) (Zea mays, post-emergence, 336 h, Table 4, 140 g ai/ha, read-out: Visual Growth Reduction (%)-14 Days after Application ZEAMX) was found to be 0%. The pest or weed control at 280 g/ha with ZEAMX: corn (Zea mays) (Zea mays, post-emergence, 336 h, Table 4, 280 g ai/ha, read-out: Visual Growth Reduction (%)-14 Days after Application ZEAMX) turned out to be 0%.

`COc1c(C(=O)OCc2ccccc2)nc(-c2ccc(Cl)c(OC)c2F)c(F)c1N` [Compound 66, benzyl 4-amino-6-(4-chloro-2-fluoro-3-methoxyphenyl)-5-fluoro-3-methoxypicolinate] had a melting point of 118 °C. Besides, in series [1] (setting [7]), the pest or weed control at 140 g/ha came out at 100%. Also, in series [2] (setting [11]), the pest or weed control at 140 g/ha worked out at 100%. For the same compound, in series [3], the pest or weed control at 140 g/ha is 100%. Also, the pest or weed control at 140 g/ha in series [4] worked out at 60%. The pest or weed control at 140 g/ha in series [5] was 100%. Also, the pest or weed control at 140 g/ha in series [6] came to 0%. The pest or weed control at 140 g/ha with ZEAMX: corn (Zea mays) (setting [12]) is 80%.
